For eleven compounds, IC50 and melting point results are on record in patent US7064124B2, “NF-κB inhibitor containing substituted benzoic acid derivative as active ingredient” (Daiichi Suntory Pharma Co., Ltd., priority 2001, dated 2006).

SMILES strings stand for the structures. ≈ marks a conversion by molar mass, not a printed value.

In one data set the test system is NF-κB. The experiment in a line: NF-κB luciferase reporter assay in A549/NF-κBLuc cells stimulated with IL-1β. The format is cell-based, human. Conditions: Homo sapiens, A549, A549/NF-κBLuc cells; compound added 1 hour before IL-1β, then 3 hours incubation; luciferase activity; read-out: NF-κB Inhibitory Activity (IC50). The method, boiled down: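 A549 cells stably carrying an NF-κB-driven luciferase reporter (pNFκB-Luc, G418-selected) pre-treated with compound for 1 h, then stimulated with IL-1β and incubated a further 3 h. Luciferase signal used to derive IC50 for NF-κB inhibition.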

`COC1=C(OC)C(=O)C(Cc2ccc(OC(C)=O)c(C(=O)Nc3ccc(OC)nc3)c2)=C(C)C1=O` [Example 180] returned a melting point of 104.5 to 107.5 °C. For the same compound, the IC50 in the data set with NF-κB was 23 µg/mL (≈ 47.9 µM).

As for `COC1=C(OC)C(=O)C(Cc2ccc(O)c(C(=O)Nc3ccc(OC)nc3)c2)=C(C)C1=O` [Example 181, N-(6-Methoxypyridin-3-yl)-5-(5,6-dimethoxy-3-methyl-1,4-benzoquinon-2-yl)methyl-2-hydroxybenzamide], the melting point fell in the range of 169 to 170 °C. Also, the IC50 in the data set on NF-κB worked out at 11 µg/mL (≈ 25.1 µM).

For `COC1=C(OC)C(=O)C(Cc2ccc(OC(C)=O)c(C(=O)Nc3ccc(Cl)nc3)c2)=C(C)C1=O` [Example 184, N-(6-Chloropyridin-3-yl)-5-(5,6-dimethoxy-3-methyl-1,4-benzoquinon-2-yl)methyl-2-acetoxybenzamide], the melting point is 74.5 to 77.5 °C. Also, in the data set with NF-κB, the IC50 is 56 µg/mL (≈ 115 µM).

For `COC1=C(OC)C(=O)C(Cc2ccc(O)c(C(=O)Nc3ccc(Cl)nc3)c2)=C(C)C1=O` [Example 185, N-(6-Chloropyridin-3-yl)-5-(5,6-dimethoxy-3-methyl-1,4-benzoquinon-2-yl)methyl-2-hydroxybenzamide], the melting point fell in the range of 166 to 169 °C. Further, the IC50 with NF-κB was 11 µg/mL (≈ 24.8 µM).

`COC1=C(OC)C(=O)C(Cc2ccc(OC(C)=O)c(C(=O)Nc3cccnc3Cl)c2)=C(C)C1=O` [Example 186, N-(2-Chloropyridin-3-yl)-5-(5,6-dimethoxy-3-methyl-1,4-benzoquinon-2-yl)methyl-2-acetoxybenzamide] registered a melting point of 128.5 to 130 °C. Moreover, the IC50 with NF-κB is 2 µg/mL (≈ 4.12 µM).

With `COC1=C(OC)C(=O)C(Cc2ccc(O)c(C(=O)Nc3cccnc3Cl)c2)=C(C)C1=O` [Example 187, N-(2-Chloropyridin-3-yl)-5-(5,6-dimethoxy-3-methyl-1,4-benzoquinon-2-yl)methyl-2-hydroxybenzamide], the melting point fell in the range of 152 to 154 °C. Further, the IC50 with NF-κB was determined as 2 µg/mL (≈ 4.52 µM).

Compound `COC1=C(OC)C(=O)C(Cc2ccc(OC(C)=O)c(C(=O)Nc3ccc(C(=O)OC(C)(C)C)cc3)c2)=C(C)C1=O` [Example 188, tert-Butyl N-[5-(5,6-dimethoxy-3-methyl-1,4-benzoquinon-2-yl)methyl-2-acetoxybenzoyl]-4-aminobenzoate] showed a melting point of 78.5 to 81 °C. Further, the IC50 in the data set on NF-κB stood at 9 µg/mL (≈ 16.4 µM).

As for `COC1=C(OC)C(=O)C(Cc2ccc(O)c(C(=O)Nc3ccc([N+](=O)[O-])cc3)c2)=C(C)C1=O` [Example 191, N-[5-(5,6-Dimethoxy-3-methyl-1,4-benzoquinon-2-yl)methyl-2-hydroxybenzoyl]-4-nitroaniline], the melting point was in the range of 213.5 to 215.5 °C. In addition, the IC50 in the data set with NF-κB amounted to 4 µg/mL (≈ 8.84 µM).

`COC1=C(OC)C(=O)C(Cc2ccc(OC(C)=O)c(C(=O)Nc3ccc(NC(=O)OC(C)(C)C)cc3)c2)=C(C)C1=O` [Example 199, N-[5-(5,6-Dimethoxy-3-methyl-1,4-benzoquinon-2-yl)methyl-2-acetoxybenzoyl]-4-(tert-butoxycarbonyl)aminoaniline] registered a melting point of 188.5 to 191 °C. Further, in the data set with NF-κB, the IC50 was 16 µg/mL (≈ 28.3 µM).

Consider `COC1=C(OC)C(=O)C(Cc2ccc(O)c(C(=O)Nc3ccc(NC(=O)OC(C)(C)C)cc3)c2)=C(C)C1=O` [Example 200, N-[5-(5,6-Dimethoxy-3-methyl-1,4-benzoquinon-2-yl)methyl-2-hydroxybenzoyl]-4-(tert-butoxycarbonyl)aminoaniline], for which the melting point was in the range of 127 to 129 °C. Further, the IC50 in the data set with NF-κB stood at 17 µg/mL (≈ 32.5 µM).

Take `COC1=C(OC)C(=O)C(Cc2ccc(O)c(C(=O)Nc3cccnc3)c2)=C(C)C1=O.CS(=O)(=O)O` [Example 202, N-(Pyridin-3-yl)-5-(5,6-dimethoxy-3-methyl-1,4-benzoquinon-2-yl)methyl-2-hydroxybenzamide (methanesulfonate)]: the melting point lay within 149.5 to 152 °C. Further, in the data set on NF-κB, the IC50 came to 20 µg/mL.
